Reference: patent US10233209B2, “Inhibitors of the farnesoid x receptor and uses in medicine” (The United States of America, as represented by the …, priority 2013, dated 2019)

Molecular target: T1, human FXR (Homo sapiens, UniProt Q96RI1)
T1 construct: expressed in transfected cells; host or cells: HEK293T
T1 sequence (Q96RI1 262-486 limits assumed): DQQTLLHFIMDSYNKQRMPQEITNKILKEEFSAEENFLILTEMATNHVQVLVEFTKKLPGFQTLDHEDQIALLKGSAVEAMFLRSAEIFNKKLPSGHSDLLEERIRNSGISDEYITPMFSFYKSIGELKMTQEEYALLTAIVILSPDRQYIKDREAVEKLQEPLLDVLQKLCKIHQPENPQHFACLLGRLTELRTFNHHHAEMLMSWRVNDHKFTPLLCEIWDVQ
Experiment: human FXR competition assay (GAL4-FXR chimeric receptor luciferase, HEK293T)
Type: cell-based
Details: in the presence of GW4064
Method: Luciferase detection was conducted using the Dual Luciferase Reporter Assay kit (Promega Corp., Madison, Wis.) and a Tecan GeniosPro luminescent plate reader (Research Triangle Park, N.C.).
Luciferase detection was conducted using the Dual Luciferase Reporter Assay kit (Promega; Madison, Wis.) and a Tecan GeniosPro™ luminescent plate reader (Research Triangle Park, N.C.).

Row | Compound | FXR activity induced by synthetic agonist GW4064 (luciferase, normalized to Renilla)
1 | C[C@H](CCC(=O)NCCS(=O)(=O)O)[C@H]1CC[C@H]2[C@@H]3[C@@H](O)[C@H](O)[C@@H]4C[C@H](O)CC[C@]4(C)[C@H]3CC[C@]12C [TWMCA] | inhibited FXR
2 | C[C@H](CCC(=O)NCCS(=O)(=O)O)[C@H]1CC[C@H]2[C@@H]3[C@H](O)[C@@H](O)[C@@H]4C[C@H](O)CC[C@]4(C)[C@H]3CC[C@]12C [TαMCA] | inhibited FXR
